The subject of series [1] is mTBI rats. As to the kind of experiment: Neurological scoring / neurological complications after repeated mild TBI. To be noted: daily injection of THC 0.002 mg/kg i.p.; 60% without THC. It counts as in vivo, Sprague-Dawley rats.
Series [2] has as its system cortical microvasculature (BBB) of mTBI rats. As to the kind of experiment: Intravital microscopy (open window, fluorescent angiography) of cortical microvascular permeability in repeated mild TBI rat model. It is filed as in vivo, Sprague-Dawley rats. To be noted: repeated THC 0.002 mg/kg i.p.; 6-8 days after first injury; vs vehicle-injected controls.
In series [3] the test system is blood-brain barrier (BBB) of mTBI rats. Kind of series: Contrast-enhanced MRI of blood-brain barrier permeability in repeated mild TBI rat model. It counts as in vivo, Sprague-Dawley rats.
The subject of series [4] is mTBI rats. Kind of series: Electrocorticographic recording of paroxysmal slow wave events (PSWEs) in repeated mild TBI rat model. It is filed as in vivo, Sprague-Dawley rats.
For series [5] the following is noted: intravenous, humans; cited from earlier work.

The structures appear in SMILES notation. “Also recorded” adds a separate entry of the source.

Turning to `CCCCCc1cc(O)c2c(c1)OC(C)(C)[C@@H]1CCC(C)=C[C@@H]21` [THC, Δ9-tetrahydrocannabinol], the “risk for neurological complications” value in the series with mTBI rats [1] came out at 35%. The “cortical microvascular (BBB) permeability” value in series [2] is on record as “lower; also recorded: reduced”. Moreover, the “% of brain volume with pathological (damaged) BBB” value in series [3] (repeated (daily, after each impact) THC 0.002 mg/kg i.p., CE-MRI after rmTBI, vs TBI vehicle) is “Moderate decrease”. Besides, the “% of brain volume with pathological voxels compared to non-injured controls” value in series [3] (repeated THC 0.002 mg/kg i.p., CE-MRI, FIG. 1D) is “not different compared to controls”. Moreover, the “effect on trauma-induced BBB breakdown” value in series [3] (repeated THC, data from both CE-MRI and intravital microscopy) is “mild protective and therapeutic effect”. Moreover, the “number of PSWEs” value is reported as “mild reduction; also recorded: lower occurrence” with mTBI rats [4] (repeated THC 0.002 mg/kg i.p., ECoG 3-4 weeks following injury) and “significant increase” in the series on mTBI rats [4] (single THC dose (THC1) 0.002 mg/kg i.p. after first impact, vs controls, FIG. 3B).
As for `CCCCCc1cc(O)c2c(c1)OC(C)(C)[C@@H]1CCC(C)=C[C@@H]21` [dronabinol, (−)-trans-[…]9-tetrahydrocannabinol], the estimated lethal dose in series [5] is given as 30 mg/kg.

The values are drawn from patent US20230302025A1, “METHODS FOR MAINTAINING MICROVASCULAR INTEGRITY” (SCISPARC LTD., priority 2020, published 2023).
